Results on 18 substances are retold here after US8987194B2, “Mutant Nisin ser 29 derivatives and the use thereof” (priority 2009, dated 2015).

For test [1] the following is noted: literature reports; cited from earlier work.
Test [2] deals with Gram-positive pathogens including Listeria monocytogenes and/or Staphylococcus aureus. The conditions noted are these: cited from earlier work.
The subject of a further test is gram-negative. The note with it: introduction of positively charged residues; cited from earlier work.
For the next test, the system named is pore formation. The note with it: cited from earlier work.
The subject of test [3] is penicillin-susceptible strain of Strep. pneumoniae. The note with it: cited from earlier work.
The test system of test [4] is L. lactis HP. In words: Agarose-based diffusion assay of Nisin A S29 supernatants. The note with it: for Measurement of inhibitory zone, Average a + b + c: average of three replicates; for Measurement of inhibitory zone, L. lactis HP (a): replicate a; for Measurement of inhibitory zone, L. lactis HP (b): replicate b; for Measurement of inhibitory zone, L. lactis HP (c): replicate c. The format is cell-based, L. lactis spp cremoris. The protocol: The Nisin A S29 derivatives were retested using this assay (See FIG. 1).
The modified agarose-based assay was performed against 2 indicator strains, L. lactis spp cremoris HP (Table. 6) and Listeria monocytogenes LO28 (Table. 7).

Test [5] has as its system L. lactis HP. In words: Deferred antagonism assay (agar overlay). In kind it is cell-based, Lactococcus lactis spp cremoris. The conditions noted are these: in Table 2 a listed strain = enhanced. Here is the method: (§1) Deferred antagonism assays were performed by replicating strains on GM17 agar plates and allowing them to grow overnight before overlaying with either GM17/BHI/TSB-YE/MH agar (0.75% w/v agar) seeded with the appropriate indicator strain. For higher throughput screening of the S29X bank, deferred antagonism assays were performed by replicating strains using a 96 pin replicator (Boekel) or spotting 5 μl of a fresh overnight culture on GM17 agar plates and allowing them to grow overnight. Following overnight growth the strains were subjected to UV radiation for 30 minutes prior to overlaying with either GM17/BHI/TS/MH agar (0.75% w/v agar) seeded with the appropriate indicator

In another test the test system is S. aureus RF122. In words: Deferred antagonism assay (agar overlay). The format is cell-based, Staphylococcus aureus. The conditions noted are these: in Table 2 a listed strain = enhanced. Here is the method: as §1

Where two headings read alike, the source gives them in different places. Where no end group is shown, it is not given here.

Consider “I1W: aromatic residue-containing form of Nisin, literature (WTSISLCTPGCKTGALMGCNMKTATCHCSIHVSK; UniProt P13068 24-57, looked up, variant I1W)”, for which the “antimicrobial activity of bioengineered derivative relative to Nisin” value in test [1] is “reduced antimicrobial activity”.

“I30W: aromatic residue-containing form of Nisin, literature (ITSISLCTPGCKTGALMGCNMKTATCHCSWHVSK; UniProt P13068 24-57, looked up, variant I30W)”: the “antimicrobial activity of bioengineered derivative relative to Nisin” value in test [1] is “reduced antimicrobial activity”.

With “K22E (ITSISLCTPGCKTGALMGCNMETATCHCSIHVSK; UniProt P13068 24-57, looked up, variant K22E)”, the “antimicrobial activity of bioengineered derivative relative to Nisin” value in test [1] is “detrimental impact”.

In the case of “K22S: Nisin hinge region derivative (Field et al., 2008) (ITSISLCTPGCKTGALMGCNMSTATCHCSIHVSK; cysteine pairing not given here; also: lantibiotic nisin-A post-translational modifications, not placed; UniProt P13068 24-57, looked up, variant K22S)”, the “bioactivity and specific activity against Gram-positive pathogens” value in test [2] was “enhanced bioactivity and specific activity”.

Consider “M21E (ITSISLCTPGCKTGALMGCNEKTATCHCSIHVSK; UniProt P13068 24-57, looked up, variant M21E)”, for which the “antimicrobial activity of bioengineered derivative relative to Nisin” value in test [1] is reported as “detrimental impact”.

For “M21K (ITSISLCTPGCKTGALMGCNKKTATCHCSIHVSK; UniProt P13068 24-57, looked up, variant M21K)”, the “outcome with respect to anti-gram-negative activity” value with gram-negative is “more beneficial outcome”.

As to “N20F: aromatic residue-containing form of Nisin, literature (ITSISLCTPGCKTGALMGCFMKTATCHCSIHVSK; UniProt P13068 24-57, looked up, variant N20F)”, the “antimicrobial activity of bioengineered derivative relative to Nisin” value in test [1] is listed as “reduced antimicrobial activity”.

Take “N20P/M21P: Nisin peptide with proline incorporation, literature (ITSISLCTPGCKTGALMGCPPKTATCHCSIHVSK; cysteine pairing not given here; also: lantibiotic nisin-A post-translational modifications, not placed; UniProt P13068 24-57, looked up, variant N20P M21P)”: the pore formation result in the test with pore formation is “incapable of pore formation”.

As to “N20P: Nisin hinge region derivative (Field et al., 2008) (ITSISLCTPGCKTGALMGCPMKTATCHCSIHVSK; cysteine pairing not given here; also: lantibiotic nisin-A post-translational modifications, not placed; UniProt P13068 24-57, looked up, variant N20P)”, the “bioactivity and specific activity against Gram-positive pathogens” value in test [2] was “enhanced bioactivity and specific activity”.

On to Nisin, for which the “minimum inhibitory concentration (MIC)” value is 0.4 µg/mL in test [3] (before serial exposure to Nisin (1 mg/L)) and 6.4 µg/mL in test [3] (stable Nisin-resistant mutants after serial exposure to Nisin (1 mg/L)).

Regarding “Nisin A S29F: Nisin A derivative with F at position 29 (ITSISLCTPGCKTGALMGCNMKTATCHCFIHVSK; cysteine pairing not given here; also: lantibiotic nisin-A post-translational modifications, not placed; UniProt P13068 24-57, looked up, variant S29F)”, in the test with L. lactis HP [4], the “Measurement of inhibitory zone, Average a + b + c” value stood at 11.0 mm; the “Measurement of inhibitory zone, L. lactis HP (a)” value was 10.6 mm; the “Measurement of inhibitory zone, L. lactis HP (b)” value came to 12.2 mm; the “Measurement of inhibitory zone, L. lactis HP (c)” value came out at 10.2 mm.

For “Nisin A S29H: Nisin A derivative with H at position 29 (ITSISLCTPGCKTGALMGCNMKTATCHCHIHVSK; cysteine pairing not given here; also: lantibiotic nisin-A post-translational modifications, not placed; UniProt P13068 24-57, looked up, variant S29H)”, in the test on L. lactis HP [4], the “Measurement of inhibitory zone, Average a + b + c” value was determined as 10.93 mm; the “Measurement of inhibitory zone, L. lactis HP (a)” value was 11.2 mm; the “Measurement of inhibitory zone, L. lactis HP (b)” value is recorded as 10.7 mm; the “Measurement of inhibitory zone, L. lactis HP (c)” value was determined as 10.9 mm.

“Nisin A S29I: Nisin A derivative with I at position 29 (ITSISLCTPGCKTGALMGCNMKTATCHCIIHVSK; cysteine pairing not given here; also: lantibiotic nisin-A post-translational modifications, not placed; UniProt P13068 24-57, looked up, variant S29I)”: in the test on L. lactis HP [4], the “Measurement of inhibitory zone, Average a + b + c” value stood at 9.9 mm; the “Measurement of inhibitory zone, L. lactis HP (a)” value stood at 9.2 mm; the “Measurement of inhibitory zone, L. lactis HP (b)” value came out at 11.3 mm; the “Measurement of inhibitory zone, L. lactis HP (c)” value stood at 9.2 mm.

Take “Nisin A S29L: Nisin A derivative with L at position 29 (ITSISLCTPGCKTGALMGCNMKTATCHCLIHVSK; cysteine pairing not given here; also: lantibiotic nisin-A post-translational modifications, not placed; UniProt P13068 24-57, looked up, variant S29L)”: in the test on L. lactis HP [4], the “Measurement of inhibitory zone, Average a + b + c” value was found to be 12.76 mm; the “Measurement of inhibitory zone, L. lactis HP (a)” value is listed as 12.6 mm; the “Measurement of inhibitory zone, L. lactis HP (b)” value came out at 13.5 mm; the “Measurement of inhibitory zone, L. lactis HP (c)” value turned out to be 12.2 mm.

Consider “Nisin A S29M: Nisin A derivative with M at position 29 (ITSISLCTPGCKTGALMGCNMKTATCHCMIHVSK; cysteine pairing not given here; also: lantibiotic nisin-A post-translational modifications, not placed; UniProt P13068 24-57, looked up, variant S29M)”, for which, in the test on L. lactis HP [4], the “Measurement of inhibitory zone, Average a + b + c” value is listed as 13.56 mm; the “Measurement of inhibitory zone, L. lactis HP (a)” value is 13.2 mm; the “Measurement of inhibitory zone, L. lactis HP (b)” value turned out to be 14.5 mm; the “Measurement of inhibitory zone, L. lactis HP (c)” value was determined as 13.0 mm.

Take “Nisin A S29Q: Nisin A derivative with Q at position 29 (ITSISLCTPGCKTGALMGCNMKTATCHCQIHVSK; cysteine pairing not given here; also: lantibiotic nisin-A post-translational modifications, not placed; UniProt P13068 24-57, looked up, variant S29Q)”: in the test with L. lactis HP [4], the “Measurement of inhibitory zone, Average a + b + c” value is 15.30 mm; the “Measurement of inhibitory zone, L. lactis HP (a)” value is on record as 15.3 mm; the “Measurement of inhibitory zone, L. lactis HP (b)” value is given as 15.2 mm; the “Measurement of inhibitory zone, L. lactis HP (c)” value is recorded as 15.4 mm.

With Nisin F, the “bioactivity compared to wild type (natural) Nisin variant” value in the test on L. lactis HP [5] is “Nisin A<Nisin F”.

On to Nisin Z, for which the “bioactivity compared to wild type (natural) Nisin variant” value in the test with S. aureus RF122 is recorded as “Nisin A<Nisin Z”.
